According to ChEMBL document CHEMBL4138222, “Cytotoxicity, molecular modeling, cell cycle arrest, and apoptotic induction induced by novel tetrahydro-[1,2,4]triazolo[3,4-a]isoquinoline chalcones” (Eur J Med Chem, 2018):
In brackets after ≈: the same amount, converted by molar mass. Activity calls are given as the source filed them. No cut-off for these calls is given here.

Key:
A549 = experiment: Cytotoxicity against human A549 cells assessed as inhibition of cell proliferation after 48 hrs by MTT assay; assay type: functional, cell-based; conditions: A549, 48 h
MCF7 [1] = experiment: Cytotoxicity against human MCF7 cells assessed as inhibition of cell proliferation after 48 hrs by MTT assay; assay type: functional, cell-based; conditions: MCF7, 48 h
HCT-116 = experiment: Cytotoxicity against human HCT116 cells assessed as inhibition of cell proliferation after 48 hrs by MTT assay; assay type: functional, cell-based; conditions: HCT-116, 48 h
HepG2 = experiment: Cytotoxicity against human HepG2 cells assessed as inhibition of cell proliferation after 48 hrs by MTT assay; assay type: functional, cell-based; conditions: HepG2, 48 h
[2] = Cytotoxicity against human HFB4 cells assessed as inhibition of cell proliferation after 48 hrs by MTT assay; assay type: cell-based
MCF7 [3] = experiment: Upregulation of p53 mRNA expression in human MCF7 cells at IC50 after 48 hrs by RT-PCR method; assay type: functional, cell-based
MCF7 [4] = experiment: Upregulation of Bax mRNA expression in human MCF7 cells at IC50 after 48 hrs by RT-PCR method; assay type: functional, cell-based
MCF7 [5] = experiment: Upregulation of caspase-3 mRNA expression in human MCF7 cells at IC50 after 48 hrs by RT-PCR method; assay type: functional, cell-based
MCF7 [6] = experiment: Downregulation of BCL-2 mRNA expression in human MCF7 cells at IC50 after 48 hrs by RT-PCR method; assay type: functional, cell-based
MCF7 [7] = experiment: Downregulation of MMP1 mRNA expression in human MCF7 cells at IC50 after 48 hrs by RT-PCR method; assay type: functional, cell-based
MCF7 [8] = experiment: Downregulation of CDK4 mRNA expression in human MCF7 cells at IC50 after 48 hrs by RT-PCR method; assay type: functional, cell-based
MCF7 [9] = experiment: Cell cycle arrest in human MCF7 cells assessed as accumulation at G0/G1 phase at 50.05 ug/ml after 48 hrs by propidium iodide staining-based flow cytometric method (reference value: 71.13%); assay type: functional
MCF7 [10] = experiment: Cell cycle arrest in human MCF7 cells assessed as accumulation at S phase at 50.05 ug/ml after 48 hrs by propidium iodide staining-based flow cytometric method (reference value: 23.5%); assay type: functional
MCF7 [11] = experiment: Cell cycle arrest in human MCF7 cells assessed as accumulation at G2/M phase at 50.05 ug/ml after 48 hrs by propidium iodide staining-based flow cytometric method (reference value: 4.82%); assay type: functional
MCF7 [12] = experiment: Induction of apoptosis in human MCF7 cells at 50.05 ug/ml after 48 hrs by propidium iodide staining-based flow cytometric method (reference value: 0.55%); assay type: functional
MCF7 [13] = experiment: Induction of apoptosis in human MCF7 cells assessed as cell aggregates at 50.05 ug/ml after 48 hrs by propidium iodide staining-based flow cytometric method (reference value: 4.49%); assay type: functional
MCF7 [14] = experiment: Induction of apoptosis in human MCF7 cells assessed as cell debris at 50.05 ug/ml after 48 hrs by propidium iodide staining-based flow cytometric method (reference value: 2.75%); assay type: functional
MCF7 [15] = experiment: Induction of apoptosis in human MCF7 cells assessed as induction of caspase-3 activity by measuring caspase-3 levels at 50.05 ug/ml after 24 hrs ELISA (reference value: 0.0197 ng/ml); assay type: functional
MCF7 [16] = experiment: Cell cycle arrest in human MCF7 cells assessed as accumulation at G0/G1 phase at 27.15 ug/ml after 48 hrs by propidium iodide staining-based flow cytometric method (reference value: 71.13%); assay type: functional
MCF7 [17] = experiment: Cell cycle arrest in human MCF7 cells assessed as accumulation at S phase at 27.15 ug/ml after 48 hrs by propidium iodide staining-based flow cytometric method (reference value: 23.5%); assay type: functional
MCF7 [18] = experiment: Cell cycle arrest in human MCF7 cells assessed as accumulation at G2/M phase at 27.15 ug/ml after 48 hrs by propidium iodide staining-based flow cytometric method (reference value: 4.82%); assay type: functional
MCF7 [19] = experiment: Induction of apoptosis in human MCF7 cells at 27.15 ug/ml after 48 hrs by propidium iodide staining-based flow cytometric method (reference value: 0.55%); assay type: functional
MCF7 [20] = experiment: Induction of apoptosis in human MCF7 cells assessed as cell aggregates at 27.15 ug/ml after 48 hrs by propidium iodide staining-based flow cytometric method (reference value: 4.49%); assay type: functional
MCF7 [21] = experiment: Induction of apoptosis in human MCF7 cells assessed as cell debris at 27.15 ug/ml after 48 hrs by propidium iodide staining-based flow cytometric method (reference value: 2.75%); assay type: functional
MCF7 [22] = experiment: Induction of apoptosis in human MCF7 cells assessed as induction of caspase-3 activity by measuring caspase-3 levels at 27.15 ug/ml after 24 hrs ELISA (reference value: 0.0197 ng/ml); assay type: functional

Compound	IC50 (A549) [µg/mL]	IC50 (MCF7 [1]) [µg/mL]	IC50 (HCT-116) [µg/mL]	IC50 (HepG2) [µg/mL]	IC50 [2] [µg/mL]	further results
COc1cc2c(cc1OC)C1N(CC2)C(C(=O)/C=C/c2ccccc2)=NN1c1ccccc1 (stereo not drawn)	78.1 (≈ 178 µM)	61.4 (≈ 140 µM)	625 (≈ 1420 µM)	139 (≈ 317 µM)	52.1 (≈ 119 µM)	–
O=c1[nH]cc(F)c(=O)[nH]1 [FLUOROURACIL]	66 (≈ 507 µM)	178 (≈ 1370 µM)	201 (≈ 1550 µM)	237 (≈ 1820 µM)	–	–
COc1cc2c(cc1OC)C1N(CC2)C(C(=O)/C=C/c2ccc([N+](=O)[O-])cc2)=NN1c1ccccc1 (stereo not drawn)	207 (≈ 427 µM)	50 (≈ 103 µM)	114 (≈ 236 µM)	478 (≈ 986 µM)	245 (≈ 506 µM)	Activity (MCF7 [3]): Active; Activity (MCF7 [4]): Active; Activity (MCF7 [5]): Active; Activity (MCF7 [6]): Active; Activity (MCF7 [7]): Active; Activity (MCF7 [8]): Active; Activity (MCF7 [9]): 74.52%; Activity (MCF7 [10]): 17.06%; Activity (MCF7 [11]): 0%; Activity (MCF7 [12]): 8.72%; Activity (MCF7 [13]): 4.85%; Activity (MCF7 [14]): 3.88%; Activity (MCF7 [15]): 0.3573 ng/mL
COc1cc2c(cc1OC)C1N(CC2)C(C(=O)/C=C/c2ccc3c(c2)OCO3)=NN1c1ccccc1 (stereo not drawn)	201 (≈ 417 µM)	225 (≈ 466 µM)	187 (≈ 388 µM)	122 (≈ 253 µM)	51.9 (≈ 107 µM)	–
COc1cc2c(cc1OC)C1N(CC2)C(C(=O)/C=C/c2cc(OC)c(OC)c(OC)c2)=NN1c1ccccc1 (stereo not drawn)	156 (≈ 295 µM)	27.1 (≈ 51.3 µM)	–	107 (≈ 202 µM)	–	Activity (MCF7 [3]): Active; Activity (MCF7 [4]): Active; Activity (MCF7 [5]): Active; Activity (MCF7 [6]): Active; Activity (MCF7 [7]): Active; Activity (MCF7 [8]): Active; Activity (MCF7 [16]): 66.11%; Activity (MCF7 [17]): 16.01%; Activity (MCF7 [18]): 0.6%; Activity (MCF7 [19]): 17.28%; Activity (MCF7 [20]): 7.92%; Activity (MCF7 [21]): 5.71%; Activity (MCF7 [22]): 0.4108 ng/mL
COc1cc2c(cc1OC)C1N(CC2)C(C(=O)/C=C/c2ccc(Cl)cc2)=NN1c1ccccc1 (stereo not drawn)	156 (≈ 329 µM)	151 (≈ 319 µM)	622 (≈ 1310 µM)	141 (≈ 297 µM)	57.2 (≈ 121 µM)	–
COc1ccc(/C=C/C(=O)C2=NN(c3ccccc3)C3c4cc(OC)c(OC)cc4CCN23)cc1 (stereo not drawn)	190 (≈ 404 µM)	68.5 (≈ 146 µM)	243 (≈ 518 µM)	218 (≈ 464 µM)	115 (≈ 245 µM)	–
